Experimental findings from patent publication US6028201A, “Inhibitors of farnesyl-protein transferase” (Merck & Co., Inc., priority 1998, dated 2000) are described below.

SMILES strings stand for the structures. Structures can show the parent of a compound that is named as a salt.

In the assay the target is T1, human FPTase (Homo sapiens, UniProt P49354+P49356).
T1 construct: made in house
Nature of the assay: In vitro inhibition of human FPTase. The assay is classed as biochemical. The following applies: 100 nM Ras-CVIM substrate, [3H]-FPP, 30 min; read-out: IC50 against human FPTase.

As to `CCCCCN(Cc1cncn1Cc1ccc(C#N)cc1)C(=O)Nc1cccc(Cl)c1` [Example 1, N-(3-chlorophenyl)-N'-[1-(4-cyanobenzyl)-5-imidazolylmethyl]-N'-(n-pentyl)urea hydrochloride], the IC50 is below 10 µM. The result for `CCCCCN(Cc1cncn1Cc1ccc(C#N)cc1)C(=O)N(C)c1cccc(Cl)c1` [Example 2, N-(3-chlorophenyl)-N-methyl-N'-[1-(4-cyanobenzyl)-5-imidazolylmethyl]-N'-(n-pentyl)urea hydrochloride] reads below 10 µM.
